{"source": "patent US11708338B2", "about": "“Substituted phenyl sulfonyl phenyl triazole thiones and uses thereof” (Neuropore Therapies, Inc., priority 2017, dated 2023)", "assay_type_in_all_cases": "in vivo, mouse", "key": {"[1]": {"test_system": "amyloid beta", "assay": "Amyloid beta (6E10) immunostaining in brain of L41 APP transgenic mice", "conditions": "5 mg/kg daily i.p.", "description": "As described earlier, Line 41 transgenic mice express high levels of the mutant hAPP751 and develop mature plaques in the cortex, hippocampus, thalamus and olfactory region of mouse brain. The effects of Compound 1 on Amyloid beta plaque formation were assessed in both L41 APP transgenic and non-transgenic mice in a 1 month administration study. After 30 days, the mice were sacrificed, and immunofluorescence (IF) detection of amyloid beta were assessed in the harvested brain tissues.\nThe harvested brain tissues were drop fixed using 4% PFA and sectioned on a vibratome, and representative sections containing the neuropil of cortex, hippocampus and striatum were assessed for amyloid beta with standard IHC staining.\nOn approximately day 30, all subjects were euthanized within 2 hours of the last treatment and brain and other samples were collected. Brains were removed and divided sagitally. […]\nPrepared slides were imaged at 40× using a high-resolution Hamamatsu Nanozoomer™ scanner located in the Microscopy Core in the UCSD Department of Neurosciences. Digital images were then transferred to Neuropore and analyzed using the Halo® imaging software package (Indica Labs, Corrales, N. Mex.). […] Images were evaluated for specimen and imaging problems and any issues were noted prior to unblinding of samples and statistical analyses."}, "[2]": {"test_system": "Translocator Protein (18 kDa) (TSPO)", "assay": "TSPO immunofluorescence in cortex of L41 APP transgenic mice", "conditions": "5 mg/kg daily i.p.", "description": "Neuroinflammation is associated with increased expression of the 18-kDa translocator protein (TSPO), which is present on the mitochondria of activated microglia, astroglia and macrophages (Crawshaw and Robertson 2017). The effects of Compound 1 on TSPO expression were assessed in both L41 APP transgenic and non-transgenic mice in a 1 month administration study. L41 APP transgenic mice (36 total mice, n=8-11 mice per treatment group) were injected (i.p.) daily with 5 mg/kg of Compound 1 or a vehicle control (5% DMSO+20% Cremphor EL+0.9% normal saline) for […]. Non-transgenic mice (18 total mice, n=8-11 mice per treatment group) were used as a control and were injected daily (i.p.) with 10 mg/kg of Compound 1 (data not shown) or a vehicle control (5% DMSO+20% Cremphor EL+0.9% normal saline) for 1 month. After 30 days, the mice were sacrificed, and immunofluoresence (IF) detection of TSPO were assessed in the harvested brain tissues.\nThe harvested brain tissues were drop fixed using 4% PFA and sectioned on a vibratome, and representative sections corresponding to the neuropil of cortex were assessed for TSPO with standard immunofluorescence (IF) staining."}, "[3]": {"test_system": "glial fibrillary acidic protein (GFAP)", "assay": "GFAP IHC staining in sections containing hippocampus, 1 month administration study", "conditions": "L61 ASYN transgenic mice", "description": "Neuroinflammation is also associated with increased expression of glial fibrillary acidic protein (GFAP) in activated astrocytes, which is induced by a variety of molecules including pro-inflammatory mediators released from activated microglia (Saijo et al. 2009). Increased expression of glial fibrillary acidic protein (GFAP) represents astroglial activation and gliosis during neurodegeneration. (Brahmachari et al., 2006). The effects of Compound 1 on GFAP expression were assessed in both L61 ASYN transgenic and non-transgenic mice in a 1 month administration study. After 30 days, the mice were sacrificed, and IHC detection of GFAP was assessed in the harvested brain tissues.\nThe harvested brain tissues from treated mice were fixed (drop fixed in 4% PFA) and then sectioned into 40 micro thick sections using a vibratome. The representative sections containing the hippocampus were assessed for GFAP with standard immunohistochemistry staining. The general methods used for GFAP immunostaining follow those described in Rockenstein et al., J Neurosci Res. 2002, 68(5):568-78."}}}
{"compound": "O=S(=O)(c1ccc(-n2cn[nH]c2=S)cc1)c1ccc(Cl)c(C(F)(F)F)c1", "note": "[Compound 1, 4-(4-((4-chloro-3-(trifluoromethyl)phenyl)sulfonyl)phenyl)-2,4-dihydro-3H-1,2,4-triazole-3-thione]", "values": [{"measurement": "amyloid beta level vs vehicle-treated Line 41 mice, quantification", "setting": "[1]", "value": "reduces the amyloid beta level in a statistically significant manner"}, {"measurement": "cortical TSPO level vs vehicle-treated Line 41 mice, quantification (FIG. 20)", "setting": "[2]", "value": "reduces the TSPO level in a statistically significant manner"}, {"measurement": "GFAP levels, IHC staining intensity in representative images (FIG. 16)", "setting": "[3]; 5 mg/kg or 10 mg/kg daily i.p.", "value": "reducing cortical levels of GFAP"}, {"measurement": "GFAP levels, quantification (FIG. 17)", "setting": "[3]; 10 mg/kg dose i.p. daily", "value": "reduces the cortical GFAP levels in a statistically significant manner"}]}
